Measured values: patent US6653081B2, “Methods for monitoring antiretroviral therapy and guiding therapeutic decision in the treatment of HIV/AIDS” (ViroLogic, Inc., priority 2000, dated 2003)
“And” between values parts separate entries of the source, which are not always exact repeats. Equal entries are not always repeated.

Assays:
[1] = system: RTV-1033-3/106V/227F/286T; assay: Phenotypic susceptibility assay, RTV-1033-3/106V/227F/286T; assay type: cell-based, HIV; conditions: RTV-1033-3 with V106A, F227L and T286A reverted
Excerpt: (§1) The resistance test vectors containing a functional luciferase gene cassette were constructed and host cells were transfected with the resistance test vector DNA. The resistant test vectors contained patient-derived reverse transcriptase and protease sequences that were either susceptible or resistant to the antiretroviral agents, such as nucleoside reverse transcriptase inhibitors, (NRTIs) non-nucleoside reverse transcriptase inhibitors […] protease inhibitors. The resistance test vector viral particles produced by transfecting the resistance test vector DNA into host cells, either in the presence or absence of PRIs, were used to infect target host cells grown either in the absence of NRTIs or NNRTIs, or in the presence of increasing concentrations of the drug. The amount of luciferase activity produced in infected target host cells in the presence of varying concentrations of drug was compared to the amount of luciferase produced in infected target host cells in the absence of drug. “Drug resistance” was measured as the amount of drug required to inhibit by 50% the luciferase activity detected in the absence of drug (inhibitory concentration 50%, IC50). The IC50 values were determined by plotting percent drug inhibition vs. log10 drug concentration. Stimulation of viral replication was measured as the percent increase in luciferase activity detected when infection occurs in the presence of drug as compared to in the absence of drug.
(§2) Host cells were seeded in 10-cm-diameter dishes and were transfected several days after plating with resistance test vector plasmid DNA and the envelope expression vector. Transfections were performed using a calcium-phosphate precipitation procedure. The cell culture media containing the DNA precipitate was replaced with fresh medium, from one to 24 hours, after transfection. Cell culture media containing resistance test vector viral particles was harvested one to four days after transfection and was passed through a […] filter before being used to infect target host cells, or being stored at −80° C. HIV capsid protein (p24) levels in the harvested cell culture media were determined by an EIA method as described by the manufacturer (SAIC; Frederick, Md.). Before infection, target cells (293 and 293/T) were plated in cell culture media. Control infections were performed using cell culture media from mock transfections (no DNA) or transfections containing the resistance test vector plasmid DNA without the envelope expression plasmid. One to three or more days after infection, the media was removed and cell lysis buffer (Promega) was added to each well. Cell lysates were assayed for luciferase activity (FIG. 3). The inhibitory effect of the drug was determined using the following equation:
(§3) % luciferase inhibition=1−(RLUluc[drug]÷RLUluc)×100
(§4) where RLUluc [drug] is the Relative Light Unit of luciferase activity in infected cells in the presence of drug, and RLUluc is the Relative Light Unit of luciferase activity in infected cells in the absence of drug. IC50values were obtained from the sigmoidal curves that were generated from the data by plotting the percent inhibition of luciferase activity vs. the log10 drug concentration. The percent luciferase stimulation is the negative of the % inhibition calculated using the formula above.
(§5) A resistance test vector containing all of the mutations present in RTV-1033-3 except for V106A, F227L and T286A (RTV-1033-3/106V/227F/286T) was constructed and tested using the phenotypic assay described earlier. The results were compared to those determined using the parent RTV-1033-3. We determined the pattern of phenotypic susceptibility to the NNRTIs, delavirdine, nevirapine and efavirenz, in the reverted vector, RTV-1033-3/106V/227F/286T.

RTV-1033-3/181C = assay: Phenotypic susceptibility assay, RTV-1033-3/181C; assay type: cell-based, HIV; conditions: RTV-1033-3 plus Y181C
Excerpt: as §1
Host cells were seeded in 10-cm-diameter dishes and were transfected several days after plating with resistance test vector plasmid DNA and the envelope expression vector. Transfections were performed using a calcium-phosphate precipitation procedure. […] HIV capsid protein (p24) levels in the harvested cell culture media were determined by an EIA method as described by the manufacturer (SAIC; Frederick, Md.). […] The inhibitory effect of the drug was determined using the following equation: […]
where RLUluc [drug] is the Relative Light Unit of luciferase activity in infected cells in the presence of drug, and RLUluc is the Relative Light Unit of luciferase activity in infected cells in the absence of drug. […] The percent luciferase stimulation is the negative of the % inhibition calculated using the formula above.
as §5, with “RTV-1033-3, in addition to Y181C (RTV-1033-3/181C)” for “RTV-1033-3 except for V106A, F227L and T286A (RTV-1033-3/106V/227F/286T)”, “mutated” for “reverted”, “RTV-1033-3/181C.” for “RTV-1033-3/106V/227F/286T.”

Y181C/M230L-RTV = assay: Phenotypic susceptibility assay, Y181C/M230L-RTV; assay type: cell-based, HIV-1; conditions: site-directed Y181C + M230L
RTV-013415 = assay: Phenotypic susceptibility assay, RTV-013415; assay type: cell-based, HIV; conditions: patient 013415; for decrease in susceptibility: V245M with multiple other mutations
Excerpt: as §1, §2, §3, §4
A resistance test vector was constructed as described in Example 1 from a virus sample obtained from patient 013415. The prior and current treatment regimens are unknown. Isolation of viral RNA and RT/PCR was used to generate a patient derived segment (PDS) that comprised viral sequences coding for all of PR and aa 1-313 of RT. The PDS were inserted into an indicator gene viral vector to generate a resistance test vector designated RTV-013415. RTV-013415 was then tested in a phenotypic assay to determine accurately and quantitatively the level of susceptibility to a panel of anti-retroviral drugs. […]

RTV-I135T/V245E = assay: Phenotypic susceptibility assay, RTV-I135T/V245E; assay type: cell-based, HIV-1; conditions: site-directed I135T + V245E
Excerpt: as §1, §2, §3, §4
(§6) A resistance test vector containing two mutations, I135T and V245E (RTV-I135T/V245E) was constructed and tested in the phenotypic assay described earlier. The results were compared to those determined using a genetically defined resistance test vector that was wild type at positions 135 and 245. We determined the pattern of phenotypic susceptibility to the NNRTIs, delavirdine, nevirapine and efavirenz, in RTV-I135T/V245E.

RTV-I135T/V245T = assay: Phenotypic susceptibility assay, RTV-I135T/V245T; assay type: cell-based, HIV-1; conditions: site-directed I135T + V245T
Excerpt: as §1, §2, §3, §4
as §6, with “V245T (RTV-I135T/V245T)” for “V245E (RTV-I135T/V245E)”, “RTV-I135T/V245T.” for “RTV-I135T/V245E.”

RTV-012090 = assay: Phenotypic susceptibility assay, RTV-012090; assay type: cell-based, HIV; conditions: patient CCTG-1025, week 48; for decrease in susceptibility: K101E, K103N, G190S, M230L
Excerpt: as §1, §2, §3, §4
Resistance test vectors were constructed as described in Example 1 from virus samples obtained from an individual patient at two separate time points over a 48-week period. […]

RTV-I270S = assay: Phenotypic susceptibility assay, RTV-I270S; assay type: cell-based, HIV-1; conditions: site-directed I270S alone
Excerpt: as §1, §2, §3, §4
A resistance test vector containing all of the mutations present in […] except for the I270S (RTV-013522/270I) was constructed and tested using the phenotypic assay described earlier. The results were compared to those determined using the parent RTV-013522. We determined the pattern of phenotypic susceptibility to the NNRTIs, delavirdine, nevirapine and efavirenz, in the reverted vector RTV-013522/270I. […] In this patient sample the correlation of drug-dependent stimulation of viral replication with the mutation at I270S is very striking. […]

Structure (SMILES) | drug-dependent stimulation of viral replication [1] [%] | reductions in susceptibility compared to wild type control RTV [1] [fold] | reduction in susceptibility compared to wild type control RTV (RTV-1033-3/181C) [fold] | drug-dependent stimulation of viral replication (Y181C/M230L-RTV) | reduction in susceptibility compared to wild type control RTV (Y181C/M230L-RTV) | drug-dependent stimulation of viral replication (RTV-013415) [%] | decrease in susceptibility (RTV-013415) [fold] | drug-dependent stimulation of viral replication (RTV-I135T/V245E) | reductions in susceptibility compared to wild type control RTV (RTV-I135T/V245E) [fold] | drug-dependent stimulation of viral replication (RTV-I135T/V245T) | reductions in susceptibility compared to wild type control RTV (RTV-I135T/V245T) [fold] | drug-dependent stimulation of viral replication (RTV-012090) [%] | decrease in susceptibility (RTV-012090) [fold] | drug-dependent stimulation of viral replication (RTV-I270S) [%] | reductions in susceptibility compared to wild type control RTV (RTV-I270S) [fold] | drug-dependent stimulation of viral replication (RTV-1033-3/181C) [%]
Cc1ccnc2c1NC(=O)c1cccnc1N2C1CC1 [nevirapine] | ~70 | 6 | > 600 | no drug-dependent stimulation | > 600 fold and > 800 fold | ~20 | > 600 | no drug-dependent stimulation | 2.5 | ~10% | 4 | ~80 | > 600 | ~60 | 15 | –
CC(C)Nc1cccnc1N1CCN(C(=O)c2cc3cc(NS(C)(=O)=O)ccc3[nH]2)CC1 [delavirdine] | ~60 | 3 | > 250 | no drug-dependent stimulation | > 250 fold | ~30 | > 250 | no drug-dependent stimulation | 2 | ~10% | 2.5 | ~30 | 144 | ~60 | 13 | –
O=C1Nc2ccc(Cl)cc2[C@@](C#CC2CC2)(C(F)(F)F)O1 [efavirenz] | ~50 | 5 | > 450 | no drug-dependent stimulation | 25 fold | ~20 | > 450 | no drug-dependent stimulation | 2 | no drug-dependent stimulation | 2.4 | ~40 | > 450 | ~40 | 4 | ~100
